Measured values from patent US20060167229A1, “Biologically active peptide conjugates” (priority 2002, published 2006).
Marks after values point to notes of the source that are not given here. Ends that are not written are not given here.

Assays:
Assay type in all cases: in vivo, BALB/c mice
NK cell = NK cell cytotoxicity activity test (spleen cells of treated mice against YAC-1 target cells, MTT); details: for NK cell cytotoxic activity, X ± SD (%): healthy mice; for effect on the cytotoxic activity of NK cells (summary): statistically significant difference from saline in any of the dosage groups 0.5-500 μg/kg/day
Protocol: (§1) The above substances were all dissolved in 0.5 ml saline and injected intraperitoneal (i.p.) for 15 continuous days, once per day.
(§2) Ten mice per group. The day after the last test substance administration, the mice were sacrificed by cervical dislocation. The spleen was isolated aseptically and manually dispersed in cold D-Hank's solution using an injection needle. The dispersed cell suspension was further sieved through a 100 gauge 150 μm diameter stainless steel sieve. After centrifugation at 200 g for 10 minutes, the supernatant was discarded. The cell pellet was re-suspended in 10 volume of Tris-NH4Cl buffer and then kept standing still for 10 minutes at room temperature. The suspended cells were collected by centrifugation at 150 g for 10 minutes. The cells were washed 2-4 times with cold D-Hank's solution by re-suspending and collecting by centrifugation with condition as described above. The washed cells were then diluted to the desired cell densities by RPMI-1640 culture medium, containing 10% fetal bovine serum.
Mice spleen cells were prepared to 4×10^6/ml as described in section 1.1 above. Target cells YAC-1 were brought to log phase and adjusted to 1×10^5/ml. Using a 96 wells cell culture plate, […] were added to the control well containing only the spleen cells; […] and 100 μl culture medium were added to the control well containing only target cells; 100 μl mouse spleen cells and 100 μl target cells were added to the NK activity assay well. Three parallel sets of the above were prepared per mouse.
Samples were centrifuged at 150 g for 10 minutes to collect the cells. The supernatant was discarded and 50 μl/well MTT of 1 mg/ml was added. The reaction-mixture was then shaken for 2 minutes, and incubated at 37° C., 5% CO2 for 4 hours. The supernatant was discarded after centrifugation at 150 g for 10 minutes. […] 40 mM HCl-2-propanol was added and shaken for 3 minutes. An ELISA reader was used to obtain OD570 nm of each well referenced at 630 nm.

spleen = test: Immunity organ weight test, spleen index; details: for weight of spleen (spleen index), X ± SD (%): healthy mice, peptide 500 μg/kg/day i.p. 15 days, saline 0.53 ± 0.05; for effect on the weight of the spleen (summary): statistically significant difference from saline in any of the dosage groups 0.5-500 μg/kg/day
Protocol: (§3) One day after the last test substance administration (day 16), the liver, spleen, and thymus gland were separated and blotted dry with filter paper and weighed. The phagocytosis index α was calculated as below: α=(^3√{square root over ( )}K)(W÷WLS)
Spleen index (%)=(spleen weight/body weight)×100%

thymus gland = test: Immunity organ weight test, thymus gland index; details: for weight of thymus gland (thymus gland index), X ± SD (%): healthy mice, saline 0.12 ± 0.02; for effect on the weight of the thymus gland (summary): statistically significant difference from saline in any of the dosage groups 0.5-500 μg/kg/day
Protocol: as §3
Thymus gland index (%)=(thymus weight/body weight)×100%

anti-SRBC antibody = test: Sheep Red Blood Cell (SRBC) hemolysis test, antibody formation; details: for anti-SRBC antibody formation, X ± SD (Unit): healthy mice, SRBC day 12 (IFN-γ, IL-2 3×10^5 IU/kg/day), saline 32 ± 7; for effect on the synthesis of anti-SRBC antibody upon the antigenic challenge (summary): statistically significant difference from saline in any of the dosage groups 0.5-500 μg/kg/day
Protocol: Sheep red blood cells (SRBC) were prepared by collecting blood from cervical vein and put into a sterile flask with glass beads. The flask was shaken for 3 minutes and the blood then mixed with Alsever solution (glucose 2.05 g, NaCl 0.4 g, […] 0.8 g, adjust to 100 ml with distilled water) and stored at 4° C. Immediately before use, samples were centrifuged at 130 g, 5 minutes to collect the SRBC. The cells were washed two times by re-suspension and centrifugation in normal saline. Then the cell pellet was collected by centrifugation at 180 g for 10 minutes and re-suspended in saline to make the final working SRBC suspension, 2% (v/v).
Complement was prepared by adding 10 volumes of fresh Cavy serum into one volume centrifuge packed SRBC, and then gently shaking for 30 minutes at 4° C. The SRBC was removed by centrifugation at 200 g for 10 minutes. 10 volumes of normal saline were added to obtain the working complement solution.
The test substances were administered as described in section 1.1, plus intraperitoneal injection 0.2 ml SRBC per mouse on day 12. On the day after the last test substance administration (day 16), blood was collected from the eye canthus and left at room temperature for one hour for serum exudation. After centrifugation at 200 g for 10 minutes, the serum was diluted by 500 times with normal saline.
To 1 ml diluted mouse serum of each mouse, 0.5 ml SRBC suspension was added. Ice cold. Then 1 ml working complement solution was added and incubated at 37° C. water bath for 10 minutes. Reactions were terminated by ice cold. Samples were then centrifuged at 200 g for 10 minutes to obtain the supernatant.
To 1 ml of this supernatant, 3 ml Drabkin solution was added and left at room temperature for 10 minutes. OD540 nm was obtained.
Reference OD540 nm was obtained by mixing 0.25 ml SRBC suspension with Drabkin solution to 4 ml and placed at room temperature for 10 minutes before OD540 nm was taken.
Sample serum index=(OD540 nm of test sample÷reference OD540 nm)×500

mononuclear phagocyte = test: Carbon particle clearance test, phagocytosis function; set-up: key to X ± SD (phagocytotic index): α = cube root of K × (body weight ÷ liver+spleen weight)
Protocol: On the next day after the last test substance administration (day 16), the mice were injected with […] body weight India ink (5 times dilution with normal saline) from the tail vein.
One minute and five minutes after Indian ink injection, 20 μl blood was obtained from the eye canthus with a heparinized tubing. The blood was mixed with 2 ml 0.1% w/v Na2CO3 and then OD680 nm obtained. The outline clear index K was calculated by the following formula: K=(lgA1−lgA2)÷(t2−t1)
as §3

T lymphocyte = T lymphocyte transformation test (ConA-stimulated spleen cells of treated mice, MTT); details: for X ± SD (stimulation index): healthy mice, saline 1.3 ± 0.1
Protocol: as §1, §2
Spleen cells of density 1×10^6/ml were placed onto a 96 wells cell culture plate, 100 μL/well, three parallel wells each of the assay sample and control sample per mouse. To the assay wells, 100 μl/well ConA of 100 μg/ml in RPMI-1640 was added, and […] plain RPMI-1640 was used for the controls. The cells were incubated for 66 hrs at 37° C., 5% CO2. The cells were then pelleted by centrifugation at 150 g for 10 minutes.
50 μl/well MTT of 1 mg/ml in RPMI-1640 was added to the cell pellet and the cells re-suspended by shaking for 2 minutes. The incubation was continued for 4 hours. The supernatant was discarded after centrifugation at 150 g for 10 minutes. 120 μl 40 mM HCl-2-propanol was added to the cell pellet and shaken for 3 minutes. […]
Each mouse formed three assay wells and three control wells. The Stimulation Index (SI) of each mouse was obtained by first deriving the average OD of the three parallel wells, then dividing the value of the assay wells by the control wells.

[1] = peptide 500 μg/kg/day i.p. 15 days (IFN-γ, IL-2 3×10^5 IU/kg/day), saline 63 ± 9
[2] = peptide 5 μg/kg/day i.p. 15 days (IFN-γ, IL-2 3×10^5 IU/kg/day)
[3] = peptide 50 μg/kg/day i.p. 15 days (IFN-γ, IL-2 3×10^5 IU/kg/day)
[4] = peptide 0.5 μg/kg/day i.p. 15 days
[5] = peptide 5 μg/kg/day i.p. 15 days
[6] = peptide 50 μg/kg/day i.p. 15 days
[7] = peptide 500 μg/kg/day i.p. 15 days
[8] = peptide 500 μg/kg/day i.p. 15 days (IFN-γ, IL-2 3×10^5 IU/kg/day)
[9] = statistically significant difference from saline in any of the dosage groups 0.5-500 μg/kg/day
[10] = peptide 0.5 μg/kg/day i.p. 15 days (IFN-γ, IL-2 3×10^5 IU/kg/day)

## Ala Ala Phe [CMS023]
NK cell; [1]
  NK cell cytotoxic activity, X ± SD (%): 79 ± 12 %
NK cell
  effect on the cytotoxic activity of NK cells (summary): increase
spleen
  weight of spleen (spleen index), X ± SD (%): 0.36 ± 0.06 %
  effect on the weight of the spleen (summary): decrease
Thymus gland; [2]
  weight of thymus gland (thymus gland index), X ± SD (%): 0.23 ± 0.06 %
Thymus gland; [3]
  weight of thymus gland (thymus gland index), X ± SD (%): 0.20 ± 0.02*^@^ %
Thymus gland
  effect on the weight of the thymus gland (summary): increase
anti-SRBC antibody; [4]
  anti-SRBC antibody formation, X ± SD (Unit): 108 ± 21*^@^ Unit
anti-SRBC antibody; [5]
  anti-SRBC antibody formation, X ± SD (Unit): 166 ± 27*^@^ Unit
anti-SRBC antibody; [6]
  anti-SRBC antibody formation, X ± SD (Unit): 84 ± 11*^@^ Unit
anti-SRBC antibody; [7]
  anti-SRBC antibody formation, X ± SD (Unit): 110 ± 45*^@^ Unit
anti-SRBC antibody
  effect on the synthesis of anti-SRBC antibody upon the antigenic challenge (summary): enhance

## Phe Gln Ser Phe (FQSF; printed: Phe Gln Ser Phe) [CMS033]
NK cell; [1]
  NK cell cytotoxic activity, X ± SD (%): 89 ± 8 %
NK cell
  effect on the cytotoxic activity of NK cells (summary): increase
Thymus gland; [2]
  weight of thymus gland (thymus gland index), X ± SD (%): 0.20 ± 0.02 %
Thymus gland; [3]
  weight of thymus gland (thymus gland index), X ± SD (%): 0.18 ± 0.03 %
Thymus gland; [8]
  weight of thymus gland (thymus gland index), X ± SD (%): 0.25 ± 0.04*^@^ %
Thymus gland
  effect on the weight of the thymus gland (summary): increase
anti-SRBC antibody; [4]
  anti-SRBC antibody formation, X ± SD (Unit): 78 ± 12*^@ Unit
anti-SRBC antibody; [5]
  anti-SRBC antibody formation, X ± SD (Unit): 128 ± 39*^@^ Unit
anti-SRBC antibody; [6]
  anti-SRBC antibody formation, X ± SD (Unit): 112 ± 15*^@^ Unit
anti-SRBC antibody; [7]
  anti-SRBC antibody formation, X ± SD (Unit): 143 ± 27*^@^ Unit
anti-SRBC antibody
  effect on the synthesis of anti-SRBC antibody upon the antigenic challenge (summary): enhance

## Phe Glu Gln Asn Met (FEQNM; printed: Phe Glu Gln Asn Met) [CMS027]
NK cell; [1]
  NK cell cytotoxic activity, X ± SD (%): 88 ± 8 %
NK cell
  effect on the cytotoxic activity of NK cells (summary): increase
spleen
  weight of spleen (spleen index), X ± SD (%): 0.37 ± 0.03 %
  effect on the weight of the spleen (summary): decrease
Mononuclear phagocyte; healthy mice, peptide 0.5 μg/kg/day i.p. 15 days (IFN-γ, IL-2 3×10^5 IU/kg/day), saline 5.1 ± 0.6
  X ± SD (phagocytotic index): 6.4 ± 0.6
Mononuclear phagocyte; [9]
  effect on the phagocytotic activity of mononuclear phagocyte (summary): enhance
Thymus gland; [3]
  weight of thymus gland (thymus gland index), X ± SD (%): 0.21 ± 0.03*^@^ %
Thymus gland; [8]
  weight of thymus gland (thymus gland index), X ± SD (%): 0.20 ± 0.03*^ %
Thymus gland
  effect on the weight of the thymus gland (summary): increase
anti-SRBC antibody; [4]
  anti-SRBC antibody formation, X ± SD (Unit): 99 ± 14*^@^ Unit
anti-SRBC antibody; [5]
  anti-SRBC antibody formation, X ± SD (Unit): 117 ± 45*^@^ Unit
anti-SRBC antibody; [6]
  anti-SRBC antibody formation, X ± SD (Unit): 93 ± 11*^@^ Unit
anti-SRBC antibody
  effect on the synthesis of anti-SRBC antibody upon the antigenic challenge (summary): enhance

## TTYNSIM [CMS026]
NK cell; peptide 50 μg/kg/day i.p. 15 days (IFN-γ, IL-2 3×10^5 IU/kg/day), saline 56 ± 8
  NK cell cytotoxic activity, X ± SD (%): 76 ± 9 %
NK cell; [1]
  NK cell cytotoxic activity, X ± SD (%): 89 ± 7 %
NK cell
  effect on the cytotoxic activity of NK cells (summary): increase
Thymus gland; [10]
  weight of thymus gland (thymus gland index), X ± SD (%): 0.21 ± 0.05 %
Thymus gland; [2]
  weight of thymus gland (thymus gland index), X ± SD (%): 0.31 ± 0.05*^@^ %
Thymus gland; [3]
  weight of thymus gland (thymus gland index), X ± SD (%): 0.27 ± 0.02*^@^ %
Thymus gland; [8]
  weight of thymus gland (thymus gland index), X ± SD (%): 0.20 ± 0.03*^ %
Thymus gland
  effect on the weight of the thymus gland (summary): increase
anti-SRBC antibody; [4]
  anti-SRBC antibody formation, X ± SD (Unit): 19 ± 6 Unit
anti-SRBC antibody; [5]
  anti-SRBC antibody formation, X ± SD (Unit): 191 ± 17*^@^ Unit
anti-SRBC antibody; [6]
  anti-SRBC antibody formation, X ± SD (Unit): 98 ± 9*^@^ Unit

## VVYPWTQRF [CMS002]
NK cell; peptide 0.5 μg/kg/day i.p. 15 days (IFN-γ, IL-2 3×10^5 IU/kg/day), saline 58 ± 7
  NK cell cytotoxic activity, X ± SD (%): 76 ± 9 %
NK cell
  effect on the cytotoxic activity of NK cells (summary): increase
T lymphocyte; [3]
  X ± SD (stimulation index): 2.6 ± 0.3*^@^
T lymphocyte; [8]
  X ± SD (stimulation index): 1.8 ± 0.3
T lymphocyte; [9]
  effect on T lymphocyte transformation (summary): enhance
Thymus gland; [10]
  weight of thymus gland (thymus gland index), X ± SD (%): 0.26 ± 0.06*^@^ %
Thymus gland; [2]
  weight of thymus gland (thymus gland index), X ± SD (%): 0.24 ± 0.05*^ %
Thymus gland; [3]
  weight of thymus gland (thymus gland index), X ± SD (%): 0.21 ± 0.02*^@^ %
Thymus gland
  effect on the weight of the thymus gland (summary): increase
anti-SRBC antibody; [4]
  anti-SRBC antibody formation, X ± SD (Unit): 4 ± 1 Unit
anti-SRBC antibody; [7]
  anti-SRBC antibody formation, X ± SD (Unit): 87 ± 18*^@ Unit
